Data set [1] in a line: Apparent Tm of HAB1 variants by thermal challenge and yeast surface display of PYR1^M. It is filed as physicochemical. The conditions noted are these: YSD of PYR1^M, 500 nM ABA, 20 nM HAB1 variant. The method, then:
(§1) Except where noted, all proteins were expressed as N-terminal 6×His-MBP fusions primarily using the medium and method as described in ref. 17. For crystallographic structures, PYL2 and ΔN-HAB1^T+ were expressed in E. coli and purified as described previously 27. Assays for phosphatase activity and apparent Tm, measured via thermal challenge using yeast surface display were performed essentially as previously described 17.
Citrate-buffered saline was first prepared (CBS: 20 mM sodium citrate, 147 mM NaCl, 4.5 mM KCl). A portion of this CBS was removed and this aliquot was made into CBS^+++ by addition of freshly dissolved DTT to 1 mM, TCEP pH 8.0 to 1 mM, and MnCl2 to 10 mM followed by pH adjustment to 8.0 using 1 M sodium hydroxide. CBS^+++ was then sterile filtered and placed on ice. A further portion of CBS was removed and the above reagents were added in addition to bovine serum albumin at 0.2% w/v to produce CBSFF^+++, followed by adjustment of pH to 8.0 with 1 M sodium hydroxide and the solution was again sterile filtered and placed on ice. The remainder (and bulk) of the CBS was used to produce CBSF by addition of 0.1% w/v BSA with adjustment of pH to 8.0 using 1 M sodium hydroxide, and this solution was also sterile filtered, and 25 mL were retained at room temperature, with the bulk of the solution transferred to ice.
Determination of apparent Tm was performed using thermal melt. 130 AL of the ice-cold ammonium sulfate precipitates of HAB variants MBP-636 (“WT”), ΔN-HAB1^T+, MBP-724, MBP-725, and MBP-726 were pelleted in a microcentrifuge for 5 minutes at 17,000 g.
The supernatant was removed by pipette, discarded, and the pellet resuspended in an equivalent volume of ice-cold CBS^+++. Zeba™ spin desalting columns (Thermo) were equilibrated with CBS^+++ and the resuspended HABs were desalted and placed on ice. Each HAB was diluted to 400 nM concentration in CBS^+++ and aliquoted into PCR tubes at a 50 μL volume. These tubes were distributed into the blocks of a pair of Eppendorf Mastercycler X50i thermocyclers programmed for a thermal gradient as follows (in ° C.): (Machine #1 Gradient 30.0 to 60.0-30.0, 35.4, 39.3, 46.8, 50.6, 54.5, 60.0, Machine #2 Gradient 65.0 to 95.0-65.0, 70.4). The HAB aliquots were held at these temperatures for 30 minutes, followed by cooling to 4° C. in the thermocycler blocks. Once the aliquots had cooled, they were transferred to racks on ice and SO AL of CBSFF^+++ was added, such that each HAB was now at a concentration of 200 nM (10X) in CBSF^+++. The heat treated HAB aliquots were left on ice until the remainder of the labeling reactions were set up, about 1 hour. Labeling reactions were performed, measured, and analyzed as described previously (Steiner et al. 2020).

Data set [2] in a line: Phosphatase activity of 6xHis-MBP-ΔN-HAB1 variants using p-NPP. The format is biochemical. The conditions noted are these: error 1 SEM.
Text: FIG. 8: Assessment of stabilized, inactivated 6×His-MBP-ΔN-HAB1 variants. Experiments were repeated on two separate days using independently generated batches of protein. Error bars indicate 1 SD of 3 measurements. Sets of mutations for each variant are noted in Table 7. […] Fluorescence here refers to streptavidin-phycoerythrin.
as §1

The target in the next data set is T1, PYR1^M/ΔN-HAB1^T+ (Arabidopsis thaliana, UniProt O49686, H60P/N90S).
T1 construct: made in house; host or cells: E. coli
T1 sequence (O49686 whole entry H60P/N90S, other chains not shown): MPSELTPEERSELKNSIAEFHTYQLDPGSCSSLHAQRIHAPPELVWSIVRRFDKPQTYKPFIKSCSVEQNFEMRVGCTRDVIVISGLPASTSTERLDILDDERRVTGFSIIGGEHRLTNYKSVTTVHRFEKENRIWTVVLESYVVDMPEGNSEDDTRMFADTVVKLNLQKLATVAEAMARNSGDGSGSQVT
Briefly: PYR1 ELISA-like plate assay, immobilized PYR1^M with biotinylated ΔN-HAB1^T+. The format is binding. The following applies: for Amax [AU 450 nm]: global parameter. Here is the method:
PYR1 was immobilized overnight in clear plates, blocked with KPL milk diluent in buffer CBS ^17 (CBSM). All binding reactions were performed using CBSM. Detection was performed via binding a streptavidin-HRP conjugate to biotinylated ΔN-HAB1^T+ followed by incubation with a commercial TMB reagent. Lower limits of detection (LODs) were determined by linear regression of the response data in the low linear range using the formula LOD=3σy/m, where m is the slope of the response line and σy is the standard error of the y intercept using data combined from biological replicates.
Unconjugated 6×His-MBP-PYR1 variants were immobilized to Microlon clear plates (655081) using 100 μL of CBS without pH modification, at a protein concentration of 100 μg mL^−1, or 1.57 AM at 4° C. overnight. Wells assigned as no PYR controls received only CBS. Plates were sealed using Microseal B adhesive sealers (BioRad MSB-1001). The following day, the solutions were decanted by flicking and all wells were washed twice with 300 μL of CBS. Blocking was performed using 300 μL of KPL milk diluent/concentrate (SeraCare 5140-0011) diluted 1:20 according to manufacturer's protocol, hereafter referred to as CBSM, incubated at room temperature for 2 hours, during which time all other components of the assays were diluted and assembled in 96 well PCR plates (Biorad HSP9601). Binding reactions were assembled from 88 μL of CBSM, 2 AL of 50× concentrate of ligand, dissolved in anhydrous ethanol for ABA, or anhydrous DMSO for all other compounds, with 10 μL of HAB to be added. Blocked plates were decanted by flicking and were washed twice with 300 μL of CBSM, followed by vigorous tamping on a pad of paper towels. The sole exception to the pre-assembly was biotinylated ΔN-HAB1^T+, where 130 AL of ammonium sulfate precipitate was pelleted at 17,000 g for 10 minutes, and the supernatant removed. The pellet was stored on ice until the blocked and washed plates were ready to receive the binding reactions. ΔN-HAB1^T+ was exchanged into CBSM with 1 mM DTT and 1 mM TCEP (CBSM++) using Zeba™ spin desalting columns (Thermo) were equilibrated with CBSM++. ΔN-HAB1^T+ was diluted to 10× the final binding reaction concentration and was immediately added to the pre-assembled assays in PCR plates, which were mixed by pipetting and transferred to the washed, blocked Microlon plates. Microlon plates were transferred to a plate shaker (Heidolph Titramax 1000) for 30 minutes at room temperature with shaking at 800 rpm. Plates were decanted by flicking and were washed three times with 300 μL of CBSM, followed by vigorous tamping on a pad of paper towels. Detection was enabled by addition of 100 μL of streptavidin-horseradish peroxidase (Thermo, SA10001), diluted 1:25,000 into CBSM, incubated in the above plate shaker for 10 minutes. This was decanted by flicking and washed three times with 300 AL of CBSM and by vigorous tamping on a pad of paper towels. Bound HAB was detected through addition of 50 μL 1-Step™ Ultra TMB-ELISA Substrate Solution (Thermo, 34028), incubated in the above plate shaker for 15 minutes (PYR1^M(N90S/H60P) with ABA, PYR1 ^WIN-M and PYR1^4F-M. in specificity assays to avoid overdevelopment of positive control), or for 30 minutes (PYR1^N90S/MANDI with mandipropamid, and PYR1^WIN-M and PYR1^4F-M under ligand titrations). TMB development was quenched by addition of 50 μL of 2M sulfuric acid and plates were read at 450 nm using a Biotek Synergy H1 Hybrid multimode plate reader. Estimates of Kd,eff were performed using Graphpad Prism 8.4.3 using the specific binding with Hill slope nonlinear regression function. Best fits for Kd1 and Kd2 were determined from global nonlinear fitting of the ELISA data using a custom script written in MatLab 2019b.
A general note: ELISA stands for enzyme-linked immunosorbent assay.

The subject of data set [3] is PYR1 mutant receptors (ligand-dependent binding to HAB1). Briefly: Yeast two-hybrid screens and optimization for organophosphate sensors. It is filed as cell-based, Arabidopsis. The method, then:
Surviving cells were collected and used in subsequent positive selections for ligand-responsive receptors on SD,-Leu,-Trp,-Ura media supplemented with a specific test chemical (100 μM) for responsiveness to any of the 10-member panel of organophosphate compounds: diazinon, pirimiphos-methyl, azinphos-ethyl, dimethoate, chlorfenvinphos, disulfoton, parathion-methyl, bromophos-methyl, malathion, and monocrotophos; all compounds were purchased form (Sigma-Aldrich). Isolated colonies were tested by regrowth on ligand-containing media and by dose response using X-gal staining and Sanger sequenced (see FIG. 13a-d).
Recombination-based mutagenesis of hit receptors was used to generate subsequent molecular diversity for selection-based optimization experiments, using the same general strategy across all scaffolds utilized. […] The resulting shuffled DNA fragments were cloned into pBD, transformed into E. coli, colonies collected, and plasmids extracted.

Values joined by “and” are separate entries in the source; they are usually repeats but may differ in a detail not shown here. Equal entries are not always repeated. Where two headings read alike, the source gives them in different places.

With “724: stabilized dead 6 × His-MBP-ΔN-HAB1 variant with D243A instead of D204A [compound 724]”, the “Tm, app (° C.)” value in data set [1] (Biorep 1) stood at 54.1 °C; in data set [1] (Biorep 2), 44.8 °C. The “Phosphatase Activity (% of 636 at 50 mM p-NPP)” value in data set [2] (Biorep 1) worked out at 0.22 ± 0.005%; in data set [2] (Biorep 2), 0.01 ± 0.001%.

For “725: 6 × His-MBP-ΔN-HAB1 (C186S, D199A, D204A, S209V, D287E, S292N, S342A, N377A, N439S) [compound 725]”, the “Tm, app (° C.)” value in data set [1] (Biorep 1) was determined as 50.7 °C; in data set [1] (Biorep 2) it was 45.5 °C. In addition, the results for the “Phosphatase Activity (% of 636 at 50 mM p-NPP)” value in data set [2] (Biorep 1) and in data set [2] (Biorep 2) were 0.25 ± 0.01% and 0.003 ± 0.004%, respectively.

In the case of `CC1=CC(=O)CC(C)(C)[C@@]1(O)/C=C/C(C)=C\C(=O)O` [ABA, abscisic acid], the Kd was 820 nM on PYR1^M/ΔN-HAB1^T+ (global nonlinear fit, PYR1^M/ABA/ΔN-HAB1^T+ system, Biorep 1, read-out: KD1); 780 nM on PYR1^M/ΔN-HAB1^T+ (global nonlinear fit, PYR1^M/ABA/ΔN-HAB1^T+ system, Biorep 2, read-out: KD1); 2090 nM at PYR1^M/ΔN-HAB1^T+ (global nonlinear fit, PYR1^M/ABA/ΔN-HAB1^T+ system, Biorep 3, read-out: KD1); 8 nM at PYR1^M/ΔN-HAB1^T+ (global nonlinear fit, KD2 = binding constant of HAB1 variant (ΔN-HAB1^T+) for PYR1^M with ABA, Biorep 1, read-out: KD2); 4 nM at PYR1^M/ΔN-HAB1^T+ (global nonlinear fit, KD2 = binding constant of HAB1 variant (ΔN-HAB1^T+) for PYR1^M with ABA, Biorep 2, read-out: KD2); 2 nM at PYR1^M/ΔN-HAB1^T+ (global nonlinear fit, KD2 = binding constant of HAB1 variant (ΔN-HAB1^T+) for PYR1^M with ABA, Biorep 3, read-out: KD2). On PYR1^M/ΔN-HAB1^T+ (optimized ELISA-like system, PYR1^M, read-out: effective Kd), the Kd was 9.7 nM. Further, the “Amax [AU 450 nm]” value at PYR1^M/ΔN-HAB1^T+ (PYR1^M/ABA/ΔN-HAB1^T+ system, Biorep 1) was 2 AU 450 nm; on PYR1^M/ΔN-HAB1^T+ (PYR1^M/ABA/ΔN-HAB1^T+ system, Biorep 2), 2.8 AU 450 nm; at PYR1^M/ΔN-HAB1^T+ (PYR1^M/ABA/ΔN-HAB1^T+ system, Biorep 3), 2 AU 450 nm. Besides, the “lower limit of detection (LOD)” value at PYR1^M/ΔN-HAB1^T+ (optimized ELISA-like system, PYR1^M) was 2 nM and 0.7 ng/mL.

Turning to `CCOP(=O)(OCC)O/C(=C\Cl)c1ccc(Cl)cc1Cl` [chlorfenvinphos], the “affinity of receptors obtained, but not lower” value in data set [3] (after optimization) worked out at 10 µM.

As for `CNC(=O)CSP(=S)(OC)OC` [dimethoate], in data set [3], the “affinity of receptors obtained, but not lower” value was found to be 10 µM.

As to “WT (636): 6 × His-MBP-ΔN-HAB1 (C186S, C274S)”, the results for the “Tm, app (° C.)” value in data set [1] (Biorep 1) and in data set [1] (Biorep 2) were 44.8 °C and 38.1 °C, respectively. Moreover, the “Phosphatase Activity (% of 636 at 50 mM p-NPP)” value in data set [2] (Biorep 1) is listed as 100 ± 0.4%; in data set [2] (Biorep 2) it was 100 ± 0.8%.

The record behind these values is patent US20260258397A1, “REAGENTS AND SYSTEMS FOR […]” (priority 2023, published 2026).
